In patent US4430331A, “Antiarrhytmic benzylimidazole” (Shionogi & Co., Ltd., priority 1981, dated 1984):

Tests used:
[1] = system: SLC-DDY male mice; experiment: in vivo; format: in vivo; settings: LD50, up and down method, into tail venae (intravenous), SLC-DDY male mice 25 to 35 g
Text: (§1) Lethal dose was obtained by administering a test compound in the form of a physiological brine solution into the tail venae of SLC-DDY male mice weighing from 25 to 35 g and calculating the value of LD50 by the up and down method [Brownlee, K. A. et al.: J. Am. Stat. As., 48, 262 (1953)].

[2] = system: atrium dextrum specimens; experiment: Antiarrhythmic activity (cardiomuscular action to the maximal stimulus frequency); set-up: species or system guinea-pigs; settings: isolated guinea-pig atrium dextrum, Krebs-Ringer-sodium carbonate solution, 30° C., after 10 minutes treatment with test compound
Protocol: (a) Antiarrhythmic activity (cardiomuscular action to the maximal stimulus frequency) A certain number of atrium dextrum specimens were made by extracting the heart from male and female guinea-pigs weighing on average 350 to 600 g, and then suspended and fixed in a glass vessel filled with Krebs-Ringer-sodium carbonate solution (30° C.) in which a mixture of 95% oxygen and 5% carbon dioxide was continuously introduced. The automatism of the specimens was recorded on the oscillograph. Maximal stimulus frequency was confirmed by affording a stimulus of the atrium dextrum from the exciting electrode equipped to a retainer. After previously treating with a test compound for 10 minutes, the reducing percent (%) of the maximal stimulus frequency was calculated by observing the reduction of the maximal frequency [[…].: Brit. […]., 1, 90 (1946)].

[3] = in vivo; format: in vivo; settings: mouse, in vivo; LD50, up and down method, into tail venae (intravenous), SLC-DDY male mice 25 to 35 g; read-out: Acute toxicity (LD50)
Text: as §1

Row | SMILES | Acute toxicity (LD50) [1] | Reducing percent (%) of Maximal stimulus frequency [2] | LD50 [3]
1 | C=C(c1c(C)ccc(Cl)c1OCC(O)CNC(C)C)n1ccnc1 (stereo not shown) [Example 30] | 28.5 mg/kg | 50.6% | –
2 | C=C[C@H]1C[N@@]2CC[C@H]1C[C@@H]2[C@@H](O)c1ccnc2ccc(OC)cc12 [Quinidine, reference compound] | – | 22.8% | –
3 | C=C(c1c(Cl)ccc(Cl)c1OCC(O)CNCC(C)C)n1ccnc1 (stereo not shown) [Example 13] | 15.5 mg/kg | 34.5% | –
4 | C=C(c1ccccc1OCC(O)CNC(C)(C)C)n1cnc2ccccc21 (stereo not shown) [Example 22] | 26.5 mg/kg | 35.8% | –
5 | C=C(c1ccc(Cl)c(Cl)c1OCC(O)CNC(C)C)n1ccnc1 (stereo not shown) [Example 26] | 33.9 mg/kg | 35.8% | –
6 | C=C(c1ccccc1OCC(O)CNC(C)C)n1cnc(C(=O)OCC)c1C (stereo not shown) [Example 17] | – | 31.7% | 36.4 mg/kg
7 | C=C(c1ccccc1OCC(O)CNC(C)C)n1cncn1 (stereo not shown) [Example 31] | 36.4 mg/kg | 42.8% | –
8 | C=C(c1ccccc1OCC(O)CNC(C)(C)C)n1cccn1 (stereo not shown) [Example 25] | 22.3 mg/kg | 39.2% | –
9 | C=C(c1ccccc1OCC(O)CNC(C)C)n1cnc(C)c1 (stereo not shown) [Example 24] | 36.4 mg/kg | 36.1% | –
10 | C=C(c1c(Cl)ccc(Cl)c1OCC(O)CNC(C)C)n1ccnc1 (stereo not shown) [Example 7] | 19.8 mg/kg | 38.1% | –
